Values joined by “and” are separate entries in the source; they are usually repeats but may differ in a detail not shown here. Equal values may be shown once. Where a name gives a salt, the structure may show the parent alone. Read-outs that look alike come from different tables or passages of the source.
Columns and labels:
[1] = tested on: isolated guinea pig intestine (spasms induced by carbachol); assay: Suppression of spasms induced by carbachol in isolated guinea pig intestine; conditions: Cavia porcellus, read-out: concentration effective against carbachol induced spasms
Source text: In further tests it was investigated in what concentrations the active substances being compared suppress spasms induced in isolated guinea pig intestine by carbachol or histamine. […] On the other hand d,l-glaucine was effective against histamine at molar concentrations of only 4×10^-8 to 4×10^-6 and against carbachol at molar concentrations of only 4×10^-7.

mice = assay: Toxicity (LD50) in mice by the Wilcox method, Comparative test 7; type: in vivo
Method: (§1) The toxicity thresholds of codeine phosphate, of d-glaucine hydrobromide and of d,l-glaucine hydrobromide were determined in mice by the Wilcox method. […] The toxicities of codeine phosphate and d,l-glaucine hydrobromide are about equal.

anti-cough effectiveness = assay: Oral anti-cough effectiveness in guinea pigs, 5% acid aerosol, Comparative test 8; type: in vivo; conditions: 1 h before 10 min exposure to 5% acid aerosol, last 5 minutes measured
[2] = tested on: isolated guinea pig intestines (contractions induced by electric voltages); assay: Suppression of electrically induced contractions in isolated guinea pig intestines, Comparative test 4; parameters: electrically induced contractions (Table III): unit not given here
Method: In a further series of tests the effects of different doses of codeine phosphate in suppressing contractions induced in isolated guinea pig intestines by electric voltages were tested. For this purpose one electrode was immersed in the solution surrounding the intestinal preparation. The second electrode was connected to the preparation at the attachment point.

cough pulses [3] = assay: Oral citric acid aerosol cough test in guinea pigs, time course 1-24 h, Comparative test 6; type: in vivo; conditions: codeine phosphate 75, d,l-glaucine hydrobromide 150, hydrochloride 135, embonate 378 mg/kg
Method: In a further comparative test, 40 female guinea pigs with body weights between 230 and 500 g were divided into 4 groups and each animal was again subjected to the action of a 20% citric acid aerosol for 8 minutes. From the control values thus obtained the average control value for each group was calculated. Each animal of each group was then given, by means of a throat probe, either 75 mg/kg of codeine phosphate, or 135 mg/kg of d,l-glaucine hydrochloride, or 150 mg/kg of d,1-glaucine hydrobromide, or 378 mg/kg of d,l-glaucine embonate. These doses are the equimolar quantities, based on glaucine. After a period of 1, or 3, or 5, or 24 hours each animal was again subjected for 8 minutes to the action of the citric acid aerosol, and the number of cough pulses during this period was recorded. The values thus obtained were compared with the control values and the percent deviation of the average measured value for each group, from the average control value, was calculated.

coughing centre = assay: Coughing reflex by electrical stimulation of upper laryngeal nerves of anaesthetized cats (method of Domenjoz), Comparative test 5; type: in vivo; conditions: intravenous, anaesthetized cats
Method: In a series of tests conducted by the method of Domenjoz, the effects of the different active substances on the coughing centre was examined by electrical stimulation of the upper laryngeal nerves of anaesthetized cats. Electrical stimulation of the nerve produces a coughing reflex and the intention is to reduce this by intravenous injection of the active substance. The minimal effective dose MED is determined by increasing the dose from 0.1 mg/kg of body weight up to 0.3 mg/kg, 1.0 mg/kg, 3.0 mg/kg and 6.0 mg/kg, until the dose is sufficient for completely suppressing the coughing reflex.
In these tests each animal was given, on the one hand, codeine and, on the other hand, at sufficient time intervals also glaucine, so that the ratio of the minimal effective doses of glaucine and codeine can be deduced.

cough pulses [4] = assay: Oral citric acid aerosol cough test in guinea pigs, 1 h (equivalent effective doses), Comparative test 6; type: in vivo; conditions: for Cough pulses percent of control value: 20% citric acid aerosol 8 min
[5] = Toxicity (LD50) in mice by the Wilcox method, Comparative test 7; type: in vivo; conditions: mouse, in vivo
Method: as §1

intestinal motility = assay: Intestinal motility / evacuation action of stomach-intestinal tract of mice (carbon suspension), Comparative test 2; type: in vivo; conditions: s.c.; for Distance travelled average % (of intestine length): 2 h, control 74.3%, * = significantly different from control (p < 0.05)
Source text: One of the most unpleasant side effects of anti-cough medicine containing codeine is constipation and the occurrence of intestinal spasms. A model test for determining the effects of anti-cough active substances on intestinal motility and on the evacuation action of the stomach-intestinaltract of mice was therefore made. After subcutaneous injection of the active substance, each animal was given, through a throat probe, a 10% suspension of carbon in a 5% aqueous slurry of gum arabic. Two hours later the intestine was sectioned and the distance of stomach coecum measured, and also the distance travelled by the carbon, which was expressed as percent of intestine length.
The effects of codeine phosphate, of d-glaucine hydrobromide and of l-glaucine hydrobromide on intestinal motility were determined at different doses. For each dose the average value was calculated for a sufficient number of animals.

[6] = tested on: isolated guinea pig intestines (contractions induced by electric voltages); assay: Suppression of electrically induced contractions in isolated guinea pig intestines, Comparative test 4; conditions: isolated guinea pig intestine; codeine: increased doses; d-glaucine: higher concentrations than 4×10^-5; d,l-glaucine: 4×10^-5 to 6×10^-5
cough pulses [7] = assay: Citric acid aerosol cough test in guinea pigs, subcutaneous, 30 min (method of Friebel and Reichle), Comparative test 1; type: in vivo; conditions: s.c.; for ED50: Cavia porcellus, sc, 0.5 h, 30 min after administering, 20% citric acid aerosol, 8 min
Method: In order to compare the anti-cough effectiveness of codeine phosphate with the effectiveness of the different isomers of glaucine hydrobromide, the testing method of Friebel and Reichle was used. 60 guinea pigs with weights between 200 and 300 g were divided up into ten groups of different sizes. Before administering the active substance, each animal was subjected, on the same day as the day of test with the active substance, for a period of 8 minutes to an aerosol of 20% citric acid, the animal being confined in a chamber at constant air pressure. During this control test the number of cough pulses was counted with the help of a pressure transmitter. From these measurements an average control value for each group was calculated. After this preliminary control test, there was given subcutaneously to each animal of each group a suspension of the active substance in 1% sodium carboxymethyl cellulose. After 30 minutes each animal was again exposed in the test chamber for 8 minutes to the aerosol of 20% citric acid and the number of cough pressure pulses recorded. The different active substances were administered in increasing doses ranging from 3 mg/kg to 100 mg/kg of body weight. Altogether eight different doses were given. The results were expressed as percent deviation from the average control value for the group on the same day, the deviation being entered in a diagram against the logarithm of the dose administered. From the resulting effectiveness curve, based on the logarithm of the dose, the coefficient of correlation and the ED50 were calculated for each active substance, by the regression analysis method of Downie and Heath (1965). The values obtained for codeine phosphate, for d-glaucine hydrobromide, for d,l-glaucine hydrobromide and for l-glaucine hydrobromide thirty minutes after administering the active substance are summarized in Table I.

SMILES: COc1cc2c(cc1OC)-c1c(OC)c(OC)cc3c1C(C2)N(C)CC3 (racemic) [d,l-glaucine]
- minimal effective concentration [1]: 0.4 µM
- toxicity, comparison in words (mice): considerably less toxic than d-glaucine

SMILES: COc1cc2c(cc1OC)-c1c(OC)c(OC)cc3c1[C@@H](C2)N(C)CC3 [1-glaucine-d-tartrate, l-glaucine-d-tartrate]
- Oral ED50 (anti-cough effectiveness; 60 min): 6,8 mg/kg

SMILES: COc1ccc2c3c1O[C@H]1[C@@H](O)C=C[C@H]4[C@@H](C2)N(C)CC[C@@]341 [codeine phosphate, reference compound]
- inhibition at 10 µM ([2]; Cavia porcellus, molar concentration of about 10^-5, read-out: suppression of electrically induced contraction reflexes): ~50%
- electrically induced contractions (Table III) ([2]; molar concentration 1 × 10^-5): 49
- electrically induced contractions (Table III) ([2]; molar concentration 2 × 10^-5): 36 and 52
- electrically induced contractions (Table III) ([2]; molar concentration 4 × 10^-5): 58
- electrically induced contractions (Table III) ([2]; molar concentration 5 × 10^-6): 85 and 51
- Cough pulses during 8 minutes, percent of control value, after 1 h (cough pulses [3]; 1 h): 84%
- Cough pulses during 8 minutes, percent of control value, after 3 h (cough pulses [3]; 3 h): 70%
- Cough pulses during 8 minutes, percent of control value, after 5 h (cough pulses [3]; 5 h): 84%
- Cough pulses during 8 minutes, percent of control value, after 24 h (cough pulses [3]; 24 h): 95%
- minimal effective dose (coughing centre; Felis catus, read-out: MED (minimal effective dose completely suppressing the coughing reflex)): 6 mg/kg
- Duration of cough suppression (coughing centre; at MED): 18 to 54 min
- Cough pulses percent of control value (cough pulses [4]; 50 mg/kg): 37%
- Cough pulses percent of control value (cough pulses [4]; 100 mg/kg): 50%
- dose having about the same effect (codeine phosphate vs d,l-glaucine hydrobromide) (cough pulses [4]; guinea pigs): ~75 mg per kg of body weight
- toxicity, comparison in words (mice): about equal
- LD50 ([5]; po, peroral, read-out: LD50 peroral): 640 mg/kg
- LD50 ([5]; sc, subcutaneous, read-out: LD50 subcutaneous): 230 mg/kg
- Distance travelled average % (of intestine length) (intestinal motility; 3 mg/kg): 70.4%
- Distance travelled average % (of intestine length) (intestinal motility; 10 mg/kg): 74.3%
- Distance travelled average % (of intestine length) (intestinal motility; 30 mg/kg): 34.8%
- Distance travelled average % (of intestine length) (intestinal motility; 100 mg/kg): 20.6%
- induced spontaneous activity, in words [6]: the spontaneous activity induced by the codeine phosphate itself increases the contractions
- ED50 (cough pulses [7]): 20.6 mg/kg

SMILES: COc1cc2c(cc1OC)-c1c(OC)c(OC)cc3c1[C@@H](C2)N(C)CC3 [l-glaucine hydrobromide]
- suppression of electrically induced contraction reflexes, in words ([2]; 4×10^-5): more effectively suppressed, compared to what is obtained using d-glaucine hydrobomide
- suppression of electrically induced contractions, in words ([2]; 8×10^-5): suppressed even more effectively
- electrically induced contractions (Table III) ([2]; molar concentration 1 × 10^-5, hydrobromide): 71 and 74
- electrically induced contractions (Table III) ([2]; molar concentration 2 × 10^-5, hydrobromide): 64 and 32
- electrically induced contractions (Table III) ([2]; molar concentration 4 × 10^-5, hydrobromide): 24 and 23
- electrically induced contractions (Table III) ([2]; molar concentration 8 × 10^-5): 7
- ED50 (anti-cough effectiveness; Cavia porcellus, po, 1 h): 7.21 mg/kg
- Distance travelled average % (of intestine length) (intestinal motility; 3 mg/kg): 74.3%
- intestinal activity, in words (intestinal motility; 10 mg/kg): significant increase in intestinal activity
- Distance travelled average % (of intestine length) (intestinal motility; 10 mg/kg): 94.3%
- intestinal motility, in words (intestinal motility; 30 mg/kg and 100 mg/kg): considerably more than the corresponding values for d-glaucine hydrobromide and codeine phosphate
- Distance travelled average % (of intestine length) (intestinal motility; 30 mg/kg): 85.4%
- Distance travelled average % (of intestine length) (intestinal motility; 100 mg/kg): 51.8%
- ED50 (cough pulses [7]): 31.2 mg/kg
- ED50 value, comparison in words (cough pulses [7]; 30 min): considerably lower effective dose ED50 value compared to d-glaucine hydrobromide

— patent publication US4370331A, “L-Glaucine containing composition for cough relief” (Karl O. Helm Aktiengesellschaft, priority 1977, dated 1983)
